Experimental findings from patent US8916586B2, “Anti-angiogenic compound” (University College Dublin—National University of Ireland, …, priority 2011, dated 2014) are described below.

Entries after “also recorded” stand apart in the source; their conditions may differ.

The test system of experiment [1] is dermal-derived normal human microvascular endothelial cells (HMVEC-d). Put plainly: Crystal violet-based proliferation assay in HMVEC-d. It counts as cell-based. To be noted: 100 nM (FIG. 13), 24 h. The procedure:
(§1) HMVEC-d were purchased from Clonetics, San Diego, Calif., USA. Cells were maintained in complete Endothelial Cell Medium (Clonetics® EGM®-2-MV BulletKit®) containing 500 ml of Endothelial Cell Basal Medium-2 and supplemented with hEGF, 0.5 ml; Hydrocortisone, 0.2 ml; GA-1000, 0.5 ml; FBS, 25 ml; VEGF, 0.5 ml; hFGF-B, 2.0 ml; R3-IGF-1, 0.5 ml; Ascorbic Acid, 0.5 ml in a 37° C. humidified atmosphere of 5% CO2/95% air. HMVEC-d were used for experiments between passages 4-8.
The responses to different compound treatments were examined using a crystal violet-based proliferation assay to test the effects of the compounds on cell proliferation. HMVEC-d were seeded in 96-well plates in complete medium at a density of 25,000 cells/cm^2 and allowed to attach in a humidified atmosphere of 5% CO2, 95% air and at 37° C. Cells were treated with the compounds at different concentrations in replicates wells, and cell proliferation was evaluated after 24 h. At the specific time point medium was removed, cells were fixed with 1% glutaraldehyde and stained with a 0.1% crystal violet solution (Pro-lab diagnostics) for 30 min. The plates were then washed extensively in water and air dried. Cell-associated dye was extracted with a 1% solution of Triton X100 and the absorbance was determined at 550 nm using a plate reader (Multiskan Ascent, Lab Systems).

Experiment [2] has the same test system. Put plainly: HMVEC-d cell migration (CIM-plate 16, xCELLigence). Conditions: 100 nM (FIG. 13). It counts as cell-based. The procedure:
as §1
Continuous monitoring of HMVEC-d cultures cell migration was recorded using a CIM-plate 16 (RTCA DP Analyser, xCELLigence System, Roche) with 5% serum serving as chemoattractant and following the manufacturer's protocol. Each well is composed of an upper chamber, a membrane with an interdigitated gold electrode on the underside of the microporous membrane (facing the lower chamber) and a lower chamber. Cells that have migrated to the lower chamber containing the chemoattractant attach to the gold electrodes and generate electrical impedance. Impedance readings are taken from an electronic sensor plate and reflect their attachment levels. […] The upper chamber was then clicked into position and 30 μl of serum-free media were added to cover the membrane surface. […] 5% CO2 humidified atmosphere and the Cell Index (CI) was recorded every 15 min. […]

In experiment [3] the test system is VEGF secreted from explant cultures of human colorectal cancers. The experiment is described as follows: VEGF secretion from human colorectal tumour explants (ELISA). It counts as cell-based. Conditions: 72 hours. As for the experimental part: Human colorectal tumour samples were taken directly from the pathology laboratory after surgery once adequate material was taken for diagnostic testing. The tumour samples were washed and stored in DMSO/tumour conditioning media (TCM). The samples were snap-frozen in liquid nitrogen and stored at −80° C. until compound testing was performed. Prior to compound testing, the tumours were thawed and incubated in fresh TCM for 24 hours. […] The TCM solutions were collected and stored at −20° C. and the remaining tumour explants were snap-frozen in liquid nitrogen and stored at −80° C. The protein content of each tumour sample was determined using the BCA protein assay. ELISA was used to determine the levels of VEGF, IL-8, MCP-1, GRO-α, IL-1β and IL-6. The secretion data were normalised according to the tumour sample's protein content.

Experiment [4] deals with hyaloid vasculature in zebrafish. Put plainly: Zebrafish developmental angiogenesis assay: number of primary branches of hyaloid vasculature on dissected lens. The class given is in vivo. To be noted: for dose-dependence of inhibition of hyaloid vasculature development: increasing concentrations between 1-10 μM, 5 dpf; for inhibition of intraocular angiogenesis (hyaloid vessels) in library screen: 5 day old larvae. The text has this: We have used the zebrafish model as an in vivo screen for chemical libraries as the small size and transparency of the zebra fish enables high-content screens in multi-well plate formats (MacRae and Peterson, 2003; Pichler et al., 2003; Peterson et al., 2004; den Hertog, 2005; Zon and Peterson, 2005). […] To identify anti-angiogenic drugs we used a transgenic line of zebrafish that expresses a fluorescent reporter (EGFP) specifically in vasculature (Tg(fli1:efgp)). This line was obtained from the Zebrafish International Resource Center. Our assay involved screening the effect of drugs in the library on the development of blood vessels in zebrafish. Specifically, we looked at the integrity of vessels developing in the eye (hyaloid vessels attached to the lens) and in the trunk.
All experiments were carried out under ethical approval granted by the UCD animal research ethics committee. Tg(fli1:EGFP) zebrafish were maintained according to standard procedures on a 14 hr light/10 hr dark cycle at 28° C. Referring to the schematic of FIG. 1A, embryos were obtained by natural spawning and developmental stages established by time and morphological criteria. A chemical library containing numerous compounds was screened (FIG. 1A). In this specific example, the chemical library contained 5000 compounds of the DIVERSet™ collection from ChemBridge Corp., USA. At 24 hours post fertilisation (hpf), 5 embryos per well were placed in […] of Embryo Medium/1% DMSO and incubated with drug at 28° C. on a 14 h light/10 h dark cycle. Larvae were euthanised, and fixed in 4% PFA at 4° C. overnight before analysis. (FIG. 1A).
Right lenses were dissected from the larvae and transferred to depression slides for observation under epi-fluorescence in the Olympus SZX16 and to cover-slip bottom Petri-dishes for confocal microscopy in a Zeiss UV510 META LSM system (20× and 40× inverted objectives). To achieve appropriate orientation, lenses were embedded in 10% methyl-cellulose and manipulated with a tungsten needle (0.5 mm diameter). Patterning of the hyaloid vessels on the treated larval lenses was compared to DMSO controls and the archetypal pattern previously described (Alvarez et al., 2007; Alvarez et al., 2009). The number of primary vessels radiating from the back of the lens (3-4 main branches at 5 dpf in controls and previously described), was counted and the average number was graphed for each drug. From screens of ˜1600 small molecules, four “hits” that inhibited the number of primary hyaloids vessels were identified (FIG. 1B).
To validate the “hits” from the library screen, dose-dependence experiments were conducted by screening the drugs in the assay described in Example 2 above but at a range of increasing concentrations between 1-10 μM. Larvae were maintained under the drug treatments at 28° C. on 14 hr light/10 hr dark cycle until 5 days post fertilisation (dpf), when they were euthanised and fixed in 4% PFA at 4° C. overnight before analysis. The average number of primary hyaloids branches was graphed for each concentration of drug. […] One of the lead compounds identified by the screen of chemical library was 11B which has the chemical name 2-[2-2-quinolinyl)vinyl]phenol and its structure shown below: […]

Where [5] appears, read: 1 μM and 10 μM tested, concentration not given at place.
Setting [6] is: 5 μM, treated day 1-5, analysed 5 dpf.
The mark [7] stands for this setting: 10 μM, treated day 1-5, analysed 5 dpf.

Consider `Oc1ccccc1/C=C/c1ccc2ccccc2n1` [11B], for which the “effect on HMVEC-d proliferation” value in experiment [1] is “no significant effect; also recorded: neither 11B nor 11F had a significant effect”. The “effect on HMVEC-d cell migration” value in experiment [2] is on record as “no significant effect; also recorded: neither 11B nor 11F had a significant effect; also recorded: neither 11B nor 11F had significant effects”. Further, the “level of VEGF secreted by human tumour explants” value in experiment [3] (setting [5]) was “significantly reduced”; in experiment [3] (10 μM), “significantly reduces”. Also, the “number of primary branches of hyaloid vasculature” value in experiment [4] (4 μM, analysed 5 dpf) is listed as “significant inhibition”; in experiment [4] (setting [6]), “significant inhibition; also recorded: significant reduction”; in experiment [4] (7.5 μM, analysed 5 dpf), “significant inhibition”; in experiment [4] (setting [7]), “significant inhibition; also recorded: significant reduction”. For the same compound, in experiment [4] (10 μM), the “anti-angiogenic effect compared with Avastin, number of primary hyaloid branches” value is on record as “more effective anti-angiogenic effect than Avastin”. Moreover, the “dose-dependence of inhibition of hyaloid vasculature development” value in experiment [4] is “dose-dependent and statistically significant manner; also recorded: dose-dependent inhibition”. For the same compound, the “inhibition of intraocular angiogenesis (hyaloid vessels) in library screen” value in experiment [4] is “inhibit intraocular angiogenesis”.

As to `COc1cc2c(C3CCCN3C)cnc(Cc3ccc4c(c3)OCO4)c2cc1OC` (centres unmarked) [11F, 1-(1,3-benzodioxol-5-ylmethyl)-6,7-dimethoxy-4-(1-methyl-2-pyrrolidinyl)isoquinoline], the “effect on HMVEC-d proliferation” value in experiment [1] is on record as “no significant effect; also recorded: neither 11B nor 11F had a significant effect”. In addition, the “effect on HMVEC-d cell migration” value in experiment [2] is given as “no significant effect; also recorded: neither 11B nor 11F had a significant effect; also recorded: neither 11B nor 11F had significant effects”. Also, the “level of VEGF secreted by human tumour explants” value in experiment [3] (setting [5]), in experiment [3] (1 μM) and in experiment [3] (10 μM) was “significantly reduced” throughout. The “number of primary branches of hyaloid vasculature” value in experiment [4] (setting [6]) and in experiment [4] (setting [7]) was “significant inhibition” throughout. Further, in experiment [4], the “dose-dependence of inhibition of hyaloid vasculature development” value is “dose-dependent and statistically significant manner”. For the same compound, in experiment [4], the “inhibition of intraocular angiogenesis (hyaloid vessels) in library screen” value is on record as “inhibit intraocular angiogenesis”.
